In the supplement of paper PMC5908809:

Experiments:
[1] = system: IMC-1 (IL-2 20 ng/mL); test: drug sensitivity score (DSS) (DSS units); higher = more sensitive; extreme values may be limits of the assay; conditions: 72 h
[2] = system: normal primary NK cells, pool 3 (3 donors) (IL-2 2.5 ng/mL); test: as above; conditions: 72 h
[3] = system: YT (IL-2 2.5 ng/mL); test: as above; conditions: 72 h
[4] = system: NK-92 (IL-2 2.5 ng/mL); test: as above; conditions: 72 h
[5] = system: SNK-6 (IL-2 2.5 ng/mL); test: as above; conditions: 72 h
[6] = system: NK-YS (IL-2 2.5 ng/mL); test: as above; conditions: 72 h
[7] = system: NKL (IL-2 2.5 ng/mL); test: as above; conditions: 72 h
[8] = system: DERL-7 (IL-2 2.5 ng/mL); test: as above; conditions: 72 h
[9] = system: normal primary NK cells, pool 1 (3 donors) (IL-2 2.5 ng/mL); test: as above; conditions: 72 h
[10] = system: KHYG-1 (IL-2 2.5 ng/mL); test: as above; conditions: 72 h
[11] = system: normal primary NK cells, pool 1 (3 donors), resting (IL-2 0 ng/mL); test: as above; conditions: 72 h
[12] = system: KAI3 (IL-2 2.5 ng/mL); test: as above; conditions: 72 h
[13] = system: normal primary NK cells, pool 2 (3 donors) (IL-2 2.5 ng/mL); test: as above; conditions: 72 h
[14] = system: normal NK cells expanded with K562-aAPC; test: percent inhibition of viability; higher = more inhibition; conditions: 72 h, IL-2 2.5 ng/mL
Procedure: (§1)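 Drug sensitivity and resistance testing on K562-aAPC-expanded normal NK cells: 5 concentrations (10-fold steps over a 10,000-fold range), 72 h at 37 °C, viability by CellTiter-Glo normalised to DMSO and benzethonium chloride controls; DSS from the fitted curve.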

[15] = system: IMC-1 (IL-2 20 ng/mL); test: as above; conditions: 72 h
[16] = system: normal primary NK cells, pool 3 (3 donors) (IL-2 2.5 ng/mL); test: as above; conditions: 72 h
[17] = system: YT (IL-2 2.5 ng/mL); test: as above; conditions: 72 h
[18] = system: NK-92 (IL-2 2.5 ng/mL); test: as above; conditions: 72 h
[19] = system: SNK-6 (IL-2 2.5 ng/mL); test: as above; conditions: 72 h
[20] = system: NK-YS (IL-2 2.5 ng/mL); test: as above; conditions: 72 h
[21] = system: NKL (IL-2 2.5 ng/mL); test: as above; conditions: 72 h
[22] = system: DERL-7 (IL-2 2.5 ng/mL); test: as above; conditions: 72 h
[23] = system: normal primary NK cells, pool 1 (3 donors) (IL-2 2.5 ng/mL); test: as above; conditions: 72 h
[24] = system: KHYG-1 (IL-2 2.5 ng/mL); test: as above; conditions: 72 h
[25] = system: normal primary NK cells, pool 1 (3 donors), resting (IL-2 0 ng/mL); test: as above; conditions: 72 h
[26] = system: KAI3 (IL-2 2.5 ng/mL); test: as above; conditions: 72 h
[27] = system: normal primary NK cells, pool 2 (3 donors) (IL-2 2.5 ng/mL); test: as above; conditions: 72 h
[28] = system: normal NK cells expanded with K562-aAPC; test: drug sensitivity score (DSS) (DSS units); higher = more sensitive; extreme values may be limits of the assay; conditions: 72 h; IL-2 2.5 ng/mL
Procedure: as §1

CN(C)/N=N/c1[nH]cnc1C(N)=O [Dacarbazine] (max concentration tested 10000 nM)
Conditions	drug sensitivity score
[1]	0
[2]	0
[3]	3.43
[4]	0
[5]	10.7
[6]	2.15
[7]	0
[8]	0
[9]	0
[10]	1.97
[11]	0
[12]	0
[13]	0
[28]	0

percent inhibition of viability [%]
Conditions	1 nM	10 nM	100 nM	1000 nM	10000 nM
[14]	-6.74	-2.31	-4.77	1.92	10.3
[15]	-2.15	-3.53	1.36	1.13	5.24
[16]	-14.1	-10.7	-2.39	-8.2	3.49
[17]	-0.72	-1.38	3.7	1.57	59.6
[18]	-11.1	-14.5	-3.48	-12.7	-1.95
[19]	16.4	16	31.9	30.4	22.6
[20]	-2.92	-5.5	2.66	4.39	31.8
[21]	-15.6	-10.8	-1.7	0.09	-2.93
[22]	-2.46	-7.71	-9.81	-6.85	-5.73
[23]	1.02	-5.15	0.2	-11.5	-4.15
[24]	-1.18	-4.93	-1.85	0.07	39.6
[25]	-7.07	-16.7	-8.98	-35.2	-22.9
[26]	-5.96	-7.58	-5.99	-9.63	10.8
[27]	-10.3	-8.69	-2.46	-11.8	-2.6

CN1CCN(C2CCN(C(=O)Nc3cc(Oc4ccc(NC(=O)C5(C(=O)Nc6ccc(F)cc6)CC5)c(F)c4)ccn3)CC2)CC1 [Golvatinib] (max concentration tested 2500 nM)
Conditions	drug sensitivity score
[1]	0
[2]	0
[3]	1.11
[4]	4.41
[5]	0
[6]	0.08
[7]	1.26
[8]	0.2
[9]	0.66
[10]	3.05
[11]	1.23
[12]	1.75
[13]	0
[28]	1.59

percent inhibition of viability [%]
Conditions	0.25 nM	2.5 nM	25 nM	250 nM	2500 nM
[14]	-2.77	-6.95	-4.34	5.19	23.6
[15]	-9.45	-2.35	-2.39	5.73	3.69
[16]	-5.97	4.22	1.77	0.21	-2.7
[17]	-6.16	-1.34	-3.26	2.58	22.1
[18]	-11.7	-1.86	-7.52	14.7	44.5
[19]	-15.4	-12	-10.5	-8.86	2.23
[20]	-10.5	-6.07	-5.82	0.77	12.1
[21]	-12.1	-3.62	2.15	8.61	20.8
[22]	-1.96	-0.71	1.22	-0.87	15.2
[23]	-2.39	15	8.72	9.1	11.9
[24]	-11.8	-6.81	-7.1	2.14	52.1
[25]	-3.44	12.3	5.91	13.5	11.9
[26]	-7	-3.9	0.53	6.28	24
[27]	-0.98	2.77	11.2	-2.79	3.25
